“And” between values parts separate entries of the source, which are not always exact repeats. Equal entries are not always repeated.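 Assay format: 96-well plates, 48-hour exposure. GI50 = concentration required for 50% inhibition of growth. TGI is the concentration that stops growth completely.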
What was measured:
Assay in all cases: NCI tumour cell line growth inhibition, 48 h
A498 renal = tested on: A498 renal
EKVX NSCLC = tested on: EKVX NSCLC
MCF7 breast = tested on: MCF7 breast
NCI/ADR-RES ovarian = tested on: NCI/ADR-RES ovarian
OVCAR-4 ovarian = tested on: OVCAR-4 ovarian
SNB-19 CNS = tested on: SNB-19 CNS
SW-620 colon = tested on: SW-620 colon
UACC-62 melanoma = tested on: UACC-62 melanoma

Compound | GI50 (A498 renal) | TGI (A498 renal) | GI50 (EKVX NSCLC) | TGI (EKVX NSCLC) | GI50 (MCF7 breast) [µM] | TGI (MCF7 breast) | GI50 (NCI/ADR-RES ovarian) | TGI (NCI/ADR-RES ovarian) [µM] | GI50 (OVCAR-4 ovarian) | TGI (OVCAR-4 ovarian) [µM] | GI50 (SNB-19 CNS) | TGI (SNB-19 CNS) [µM] | GI50 (SW-620 colon) | TGI (SW-620 colon) | GI50 (UACC-62 melanoma) | TGI (UACC-62 melanoma)
CC1=C(C(=O)Nc2cc(Cl)c3[nH]ncc3c2)C(c2ccc(C(F)(F)F)cc2)CC(=O)N1 (stereo not drawn) | 11.7 µM | > 25 µM | > 25 µM | > 25 µM | > 16.1 | > 25 µM | > 25 µM | > 25 | > 25 µM | > 25 | > 25 µM | > 25 | > 25 µM | > 25 µM | 19 µM | > 25 µM
CCOC(=O)C#Cc1c(C(=O)OCC)nnn1Cc1ccc([N+](=O)[O-])cc1 | 15.2 µM | 28.5 µM | 16.4 µM | 32.9 µM | 2.3 | 7.22 µM | 5.5 µM | 21.1 | 2.54 µM | 7.14 | 18.9 µM | 45.3 | 1.85 µM | 3.79 µM | 1.83 µM | 4.42 µM
CSC(=S)OC1CC(n2cnc3c(NC(=O)c4ccccc4)ncnc32)OC1CO[Si](C)(C)C(C)(C)C (stereo not drawn) | – | > 31.6 µM | – | > 56.2 µM | – | 40.3 µM | – | > 56.2 | – | > 56.2 | – | > 56.2 | – | > 56.2 µM | – | > 56.2 µM
CCN(CC)C(=S)SCN1C(=O)c2ccccc2S1(=O)=O | 42.9 µM | > 100 µM | > 100 µM | > 100 µM | 0.562 | > 100 µM | > 44.3 µM | > 64.9 | 35.4 µM | > 100 | 78 µM | > 100 | 43 µM | > 100 µM | 3.02 µM | –
O=C1OC(=O)C2CCCC3CCCC1C32 (stereo not drawn) | – | > 100 µM | – | > 100 µM | – | > 100 µM | – | > 100 | – | > 100 | – | > 100 | – | > 100 µM | – | > 100 µM
C/C(=N\NC(=S)SCc1ccccc1)c1ccccn1 | – | 8.73 µM | – | < 0.01 µM | – | < 0.01 µM | – | < 0.0332 | – | 1.52 | – | 18.3 | – | 9.86 µM | – | 4.69 µM
COc1cc2nccc(Oc3ccc(NC(=O)Nc4cc(C)on4)c(Cl)c3)c2cc1OC | 0.532 µM and 1.46 µM | 2.67 µM and 4.6 µM | 3.02 µM and 4.69 µM | 49.6 µM and > 10 µM | 3.35 | 56.2 µM and > 10 µM | 3.08 µM and 3.53 µM | > 100 | 2.34 µM and 4.13 µM | > 65.2 | 5.12 µM and > 10 µM | > 100 | 3.11 µM and 4.09 µM | 18.4 µM and > 10 µM | 2.12 µM and 1.82 µM | 16.4 µM and > 10 µM
Cc1cc2c(C(N)=O)c(N)n(-c3c(C)ccc(O)c3C)c2nc1C | 7.5 µM | 24.3 µM | 21.8 µM | 98.7 µM | 3.41 | > 100 µM | 6.48 µM | 32.7 | 0.998 µM | 8.03 | 8.28 µM | > 100 | 3.17 µM | 56.4 µM | – | –
C=C1C(=O)O[C@H]2[C@H]1CC/C(COC(=O)C(C)c1ccc(CC(C)C)cc1)=C\CC[C@@]1(C)O[C@@H]21 (stereo partly drawn) | – | – | 1.75 µM | 3.35 µM | 0.791 | 2.49 µM | 1.85 µM | 5.54 | 1.71 µM | 3.35 | 1.49 µM | 2.87 | 0.534 µM | 1.95 µM | 1.48 µM | 2.85 µM
NS(=O)(=O)c1ccc(N(/C=C/C(=O)C(F)(F)F)Cc2ccc(Cl)cc2)cc1 | 17.4 µM | 41.2 µM | 22.5 µM | 49.6 µM | 93.9 | > 100 µM | 15.3 µM | 54.9 | – | – | 41.9 µM | > 100 | 30.5 µM | > 100 µM | 20.3 µM | 45.3 µM
O=C1C=CC(=O)N1c1cccc(N2C(=O)C=CC2=O)c1 | 16.2 µM | 31.1 µM | 19.1 µM | 83.1 µM | 2.52 | 5.52 µM | 2.38 µM | 6.14 | – | – | 18.6 µM | 35.8 | 1.99 µM | 3.87 µM | 2.48 µM | 9.46 µM
N#Cc1cc(S(=O)(=O)Nc2nnc(-c3ccccc3)c(-c3ccccc3)n2)c(SCc2ccccc2)cc1Cl | 23.5 µM | 45.2 µM | 22.8 µM | 48.7 µM | 31 | > 100 µM | – | – | 33.9 µM | 87 | 35.1 µM | > 100 | 35.5 µM | > 100 µM | 20.5 µM | 48.7 µM
O=C1c2ccccc2-c2c1c1c(O)cccc1n2Cc1ccccn1 | – | – | 17.6 µM | 70 µM | 62.4 | > 100 µM | 43.2 µM | > 100 | > 100 µM | > 100 | > 100 µM | > 100 | 42 µM | > 100 µM | 20.5 µM | > 100 µM
CCc1ccc(C(=Nc2ccc(N(C)C(=O)CN3CCN(C)CC3)cc2)c2c(O)[nH]c3ccc(C(=O)OC)cc23)cc1 | 0.398 µM | 1.96 µM | 0.788 µM | 2.36 µM | 0.256 | 1.4 µM | – | – | 0.582 µM | 1.95 | 0.775 µM | 2.09 | 0.259 µM | 1.29 µM | 1.37 µM | 3.2 µM
CCn1c(-c2nonc2N)nc2c(C#CC(C)(C)O)ncc(OC[C@H]3CCCNC3)c21 | 0.0469 µM | 0.584 µM | – | – | 1.05 | 22.9 µM | > 100 µM | > 100 | 31.4 µM | 92.2 | 15.1 µM | 42.8 | 11.1 µM | > 100 µM | 12.9 µM | 28.2 µM
Nc1ccc(-c2cccs2)cc1NC(=O)c1ccc(CCCC(=O)Nc2ccc(C3CC3N)cc2)cc1 (stereo not drawn) | 20.4 µM | 92 µM | 3.5 µM | > 100 µM | – | – | > 100 µM | > 100 | 1.52 µM | 3.3 | – | – | – | – | 1.28 µM | 5.47 µM
CCOC(=O)c1cc(-c2ccccc2)[nH]c1N/N=C/c1ccc(Cl)cc1 | – | – | 36 µM | > 100 µM | 19.5 | > 100 µM | 52.6 µM | > 100 | 70.9 µM | > 100 | > 100 µM | > 100 | > 100 µM | > 100 µM | 49.7 µM | > 100 µM

— PubChem BioAssay (NCI)
